The record followed here is patent US5798359A, “Piperazino derivatives as neurokinin antagonists” (Schering Corporation, priority 1995, dated 1998).

Molecules are shown by their SMILES.

In assay [1] the target is T1, human neurokinin 2 (NK2) receptor (Homo sapiens, UniProt P21452).
T1 construct: expressed in transfected cells; host or cells: Chinese hamster ovary (CHO) cells, G418 medium; membranes
T1 sequence (P21452 1-398): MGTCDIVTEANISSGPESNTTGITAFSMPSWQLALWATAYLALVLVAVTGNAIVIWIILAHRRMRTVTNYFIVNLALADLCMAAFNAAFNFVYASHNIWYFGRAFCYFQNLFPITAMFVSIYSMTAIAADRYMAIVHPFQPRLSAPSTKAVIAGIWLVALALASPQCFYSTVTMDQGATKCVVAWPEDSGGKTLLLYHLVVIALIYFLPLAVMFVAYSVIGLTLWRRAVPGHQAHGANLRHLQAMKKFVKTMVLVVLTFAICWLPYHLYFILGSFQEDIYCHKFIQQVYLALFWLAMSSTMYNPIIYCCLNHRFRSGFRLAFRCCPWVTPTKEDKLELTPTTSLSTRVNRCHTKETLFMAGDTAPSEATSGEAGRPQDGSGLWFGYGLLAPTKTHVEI
As to the kind of experiment: Neurokinin NK2 receptor binding assay ([3H]-Neurokinin A, CHO cell membranes). The note with it: for inhibition at 1 µM: 1 μM concentration. The protocol: (§1) Chinese Hamster ovary (CHO) cells transfected with the coding regions for the human neurokinin 1 (NK1) of the human neurokinin 2 (NK2) receptors are grown in Dulbecco's minimal essential medium supplemented with 10% fetal calf serum, 0.1 mM non-essential amino acids, 2 mM glutamine, 100 units/ml of penicillin and streptomycin, and 0.8 mg of G418/ml at 37° C. in a humidified atmosphere containing 5% CO2.
(§2) Cells are detached from T-175 flasks with a sterile solution containing 5 mM EDTA in phosphate buffered saline. Cells are harvested by centrifugation and washed in RPMI media at […] for 5 minutes. The pellet is resuspended in Tris-HCl (pH7.4) containing 1 uM phsphoramidon and 4 ug/ml of chymostatin at a cell density of 30×10^6 cells/ml. The suspension is then homogenized in a Brinkman Polytron (setting 5) for 30-45 seconds. The homogenate is centrifuged at 800×g for 5 min at […] to collect unbroken cells and nuclei. The supernatant is centrifuged in a Sorvall RC5C at 19,000 rpm ([…]) for 30 min at 4° C. The pellet is resuspended, an aliquot is removed for a protein determination (BCA) and washed again. The resulting pellet is stored at -80° C.
(§3) Binding is initiated by the addition of 100 μl of membrane (10-20 μg) containing the human NK-1 or NK-2 receptor in a final volume of 200 μl. After 40 minutes at room temperature, the reaction is stopped by rapid filtration onto Whatman GF/C filters which have been presoaked in 0.3% polyethylenimine. Filters are washed 2 times with 3 ml of 50 mM Tris-HCl (pH7.4). Filters are added to 6 mls of Ready-Safe liquid scintillation cocktail and quantified by liquid scintillation spectrometry in a LKB 1219 RackBeta counter. Non-specific binding is determined by the addition of either 1 μM of CP-99994 (NK1) or 1 μM SR-48968 (NK2) (both synthesized by the chemistry department of Schering-Plough Research Institute).

Assay [2] concerns the target T2, human neurokinin 1 (NK1) receptor (Homo sapiens, UniProt P25103).
T2 construct: expressed in transfected cells; host or cells: Chinese hamster ovary (CHO) cells, G418 medium; membranes
Briefly: Neurokinin NK1 receptor binding assay ([3H]-Substance P, CHO cell membranes). The note with it: for Ki: [3H]-Substance P 0.8 nM, Cheng and Prusoff. The protocol:
as §1, §2, §3

T2 sequence (P25103 whole entry): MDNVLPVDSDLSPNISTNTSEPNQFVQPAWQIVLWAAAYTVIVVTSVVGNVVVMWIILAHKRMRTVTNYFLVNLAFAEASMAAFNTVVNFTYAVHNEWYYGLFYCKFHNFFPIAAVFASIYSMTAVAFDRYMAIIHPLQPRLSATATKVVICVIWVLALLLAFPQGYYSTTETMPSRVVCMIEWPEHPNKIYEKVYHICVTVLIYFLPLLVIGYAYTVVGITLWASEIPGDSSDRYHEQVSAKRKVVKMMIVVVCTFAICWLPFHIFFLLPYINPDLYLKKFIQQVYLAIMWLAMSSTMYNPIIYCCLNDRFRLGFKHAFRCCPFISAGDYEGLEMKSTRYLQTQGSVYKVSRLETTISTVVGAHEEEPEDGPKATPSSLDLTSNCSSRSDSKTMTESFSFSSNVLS

The Ki is the dissociation constant of the complex between target and ligand, obtained from inhibition or displacement. Read a high Ki as lower affinity. For `O=C(CNC1CCN(Cc2ccccc2)CC1)N1CCN(Cc2cccc(C(F)(F)F)c2)CC1c1ccc(Cl)c(Cl)c1` (stereo not drawn), the inhibition constant Ki was determined as 175 nM in assay [1] ([3H]-Neurokinin A 1.0 nM, Cheng and Prusoff); 30 nM in assay [2].

The inhibition is how much of the control response was suppressed. Higher therefore signals a strong effect. Turning to `Cc1cccc(C)c1N1CCN(CC(=O)N2CCN(Cc3cc(C(F)(F)F)cc(C(F)(F)F)c3)CC2c2ccccc2)CC1` (stereo not drawn), the inhibition at 1 µM in assay [1] came out at 0%; in assay [2] (1 μM concentration), 48%.

Compound `COC1(C[S+]([O-])c2ccccc2)CCN(CC(=O)N2CCN(Cc3cc(C(F)(F)F)cc(C(F)(F)F)c3)CC2c2ccc(Cl)c(Cl)c2)CC1` (stereo not drawn) yielded an inhibition at 1 µM in assay [1] of 24%. The compound further came in with a Ki in assay [2] of 136 nM.
